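Five compound concentrations were applied to cells in 96-well plates for 48 hours; endpoints were derived by simple linear interpolation of the resulting dose-response curve. GI50: concentration for 50% inhibition of growth.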 Activity calls are given as the source filed them. Rule as the data show it: active = GI50 up to about 1.1 µM and inactive = higher.

Common to all, as to assay: NCI-60 cell line screen, 48 h
For test [1], the system named is SK-MEL-5.
The test system of test [2] is A549.
Test [3] has as its system HL-60.
Test [4] deals with HCT-116.
The test system of test [5] is HCT-15.
Test [6] relates to HT-29.
The test system of test [7] is SNB-75.
Test [8] concerns SNB-19.
The subject of test [9] is HOP-92.
Test [10] deals with SW-620.
For test [11], the system named is A498.
In test [12] the test system is K562.
The test system of test [13] is NCI-H460.
Test [14] concerns SK-MEL-28.
The subject of test [15] is SN12C.
For test [16], the system named is ACHN.
In test [17] the test system is SK-MEL-2.
In test [18] the test system is SF-268.
Test [19] deals with KM12.

In the case of `COc1ccc(C(c2ccc(C(C)C)cc(=O)c2O)c2c(O)cc3oc(-c4ccccc4)cc(=O)c3c2O)cc1` (stereo not given), the GI50 is 11.5 µM (inactive) in test [1]; 3.35 µM (inactive) in test [2]; 4.4 µM (inactive) in test [3]; 2.81 µM (inactive) in [4]; 6.9 µM in [5]; 17.7 µM (inactive) in [6]. In addition, the GI50 in test [7] was 4.51 µM (inactive); in test [8], 4.14 µM (inactive); in test [9] it was < 0.01 µM (active); in test [10], 14.5 µM (inactive); in test [11], 18.6 µM (inactive); in [12] it was 3.03 µM (inactive). Further, the GI50 in [13] is 3.37 µM (inactive); in test [14], 17.1 µM (inactive); in [15] it was 16.5 µM (inactive); in [16], 4.21 µM (inactive).
Take `CCC(C)C(=O)c1c(O)c(C/C=C(\C)CCC=C(C)C)c(O)c2c(C(O)CC)cc(=O)oc12` (stereo not given): the GI50 was 1.19 µM (inactive) in test [1]; 1.62 µM (inactive) in [17]; 2.72 µM (inactive) in test [2]; 1.46 µM (inactive) in test [3]; 0.867 µM (active) in [4]; 1.27 µM (inactive) in test [6]. Further, the GI50 in [7] is 1.49 µM (inactive); in test [8] it was 4.23 µM (inactive); in test [9] it was 1.63 µM (inactive); in test [10], 1.98 µM (inactive); in test [18], 1.9 µM (inactive); in test [11], 2.05 µM (inactive). Also, the GI50 in [12] is 0.679 µM (active); in [13] it was 2.3 µM (inactive); in test [14], 1.68 µM (inactive); in test [15], 1.71 µM (inactive); in test [16] it was 2.2 µM (inactive); in [19], 2.51 µM (inactive).
As for `CC1CCC(=O)C(C(O)CC2CC(=O)N(c3ccccc3)C(=O)C2)C1` (stereo not given), the GI50 in test [2], in test [3], in [4], in test [6], in [7] and in test [8] was > 100 µM (inactive) throughout. Also, the GI50 in [9], in test [10], in test [18], in test [11], in test [12] and in [13] was > 100 µM (inactive) throughout. Further, the GI50 in test [14], in test [15], in test [16] and in [19] was > 100 µM (inactive) throughout.
Consider `CCOC(=O)/C=C1\Oc2ccccc2C1(C)O` (stereo not given), for which the GI50 in [1] was > 100 µM (inactive); in [17] it was > 100 µM (inactive); in test [2], > 100 µM (inactive); in [3], > 100 µM (inactive); in test [4], > 100 µM (inactive); in [5], more than 100 µM. Also, the GI50 in [6], in test [7], in test [8], in test [9], in test [10] and in test [18] was > 100 µM (inactive) each time. The GI50 in test [11], in test [12], in test [13], in [14], in [15] and in test [16] was > 100 µM (inactive) throughout. For the same molecule, the GI50 in test [19] was > 100 µM (inactive).
For `CC1=N/C(=C/c2ccc3c(c2)OCO3)C(=O)O1`, the GI50 in test [1] is > 100 µM (inactive); in test [17], > 100 µM (inactive); in [2], > 100 µM (inactive); in [4] it was > 100 µM (inactive); in test [5], more than 100 µM; in [6], > 100 µM (inactive). The GI50 in [7], in [8], in [9], in test [10], in [18] and in test [11] was > 100 µM (inactive) throughout. Also, the GI50 in test [12], in test [14], in test [15], in test [16] and in test [19] was > 100 µM (inactive) throughout.
Take `CC(=O)NC(CCCNC(=O)N(C)N=O)C(=O)NCc1ccccc1` (stereo not given): the GI50 was > 100 µM (inactive) in [1]; > 100 µM (inactive) in test [17]; > 100 µM (inactive) in test [2]; > 100 µM (inactive) in test [4]; more than 100 µM in test [5]; > 100 µM (inactive) in test [6]. In addition, the GI50 in [7] was 52.1 µM (inactive); in test [8], > 100 µM (inactive); in test [9] it was > 100 µM (inactive); in [10], > 100 µM (inactive); in [18], > 100 µM (inactive); in test [11] it was > 100 µM (inactive). The GI50 in [12], in [13], in [14], in [15], in [16] and in test [19] was > 100 µM (inactive) each time.
`COC(=O)/C=c1\s/c(=C\C(=O)OC)c2ccccc12`: the GI50 in test [1] was > 100 µM (inactive); in test [17], > 100 µM (inactive); in test [2], > 100 µM (inactive); in [3], > 100 µM (inactive); in test [4] it was > 100 µM (inactive); in test [5] it was 33.8 µM. Further, the GI50 in [6] is > 100 µM (inactive); in test [7] it was 27.9 µM (inactive); in [8] it was > 100 µM (inactive); in test [9], > 100 µM (inactive); in [10] it was > 100 µM (inactive); in [18], > 100 µM (inactive). Also, the GI50 in test [11] is > 100 µM (inactive); in test [12], > 100 µM (inactive); in test [14], > 100 µM (inactive); in [15], > 100 µM (inactive); in test [16], > 100 µM (inactive); in test [19], 11.7 µM (inactive).
Consider `COc1ccc2oc(-c3cccnc3)cc(=O)c2c1`, for which the GI50 is > 100 µM (inactive) in test [17]; 52.5 µM (inactive) in [3]; 80.7 µM (inactive) in [4]; 59.4 µM (inactive) in test [6]; 40.8 µM (inactive) in [7]; 97.1 µM (inactive) in test [8]. Also, the GI50 in test [9] was 46.1 µM (inactive); in [18], 58.3 µM (inactive); in test [11], 61.2 µM (inactive); in test [12], 67.8 µM (inactive); in [13], 32.4 µM (inactive); in test [14], > 100 µM (inactive). Besides, the GI50 in test [15] was 71.4 µM (inactive); in [16] it was 59.3 µM (inactive); in [19] it was > 100 µM (inactive).
`O=C(Nc1nc2ncn(CCO)c2c(=O)[nH]1)c1ccccc1`: the GI50 is > 100 µM (inactive) in test [1]; > 100 µM (inactive) in test [17]; > 100 µM (inactive) in [2]; > 100 µM (inactive) in test [3]; > 100 µM (inactive) in test [4]; more than 100 µM in test [5]. Also, the GI50 in test [6], in test [7], in [8], in [9], in [10] and in test [18] was > 100 µM (inactive) each time. In addition, the GI50 in test [11], in [12], in test [13], in [14], in test [15] and in test [16] was > 100 µM (inactive) each time. Moreover, in test [19], the GI50 was > 100 µM (inactive).
Turning to `O=C(NCCNCCO)N/N=C/c1cccc([N+](=O)[O-])c1`, the GI50 in [1] was > 100 µM (inactive); in test [17], > 100 µM (inactive); in [2], > 100 µM (inactive); in test [3] it was > 100 µM (inactive); in test [4] it was > 100 µM (inactive); in test [5], more than 100 µM. The GI50 in [6], in test [7], in test [9], in test [10], in [18] and in [11] was > 100 µM (inactive) throughout. In addition, the GI50 in test [12], in [13], in test [14], in test [15], in test [16] and in [19] was > 100 µM (inactive) in each case.
Turning to `CC(C)(O)/C=C/C(=O)[C@](C)(O)[C@H]1[C@H](O)C[C@@]2(C)[C@@H]3CC=C4[C@@H](C[C@H](O)C(=O)C4(C)C)[C@]3(C)C(=O)C[C@]12C` [CUCURBITACIN D], the GI50 was 0.0543 µM (active) in test [17]; 0.177 µM (active) in test [2]; 0.262 µM (active) in test [3]; 0.112 µM (active) in test [4]; 0.112 µM (active) in [6]; 0.59 µM (active) in [7]. The GI50 in [8] was 0.249 µM (active); in test [9], 0.195 µM (active); in test [10] it was 0.0914 µM (active); in [18], 0.104 µM (active); in test [11], 0.0506 µM (active); in test [12], 0.287 µM (active). The GI50 in test [13] is 0.0895 µM (active); in test [14] it was 0.0653 µM (active); in [15], 0.792 µM (active); in [19], 0.624 µM (active).

For the origin of these results see ChEMBL document CHEMBL1201862, “PubChem BioAssay data set” (2004).
